pIC50: −log10 of the molar value. Like-named read-outs stand apart in the source and are kept apart here.
Tests used:
[1] = target: T1, ribonucleotide reductase (Homo sapiens, UniProt P23921); details: cited from earlier work; for inhibition of ribonucleotide reductase (in words): 5'-triphosphate of the nucleoside analogue
T1 sequence (P23921 1-792): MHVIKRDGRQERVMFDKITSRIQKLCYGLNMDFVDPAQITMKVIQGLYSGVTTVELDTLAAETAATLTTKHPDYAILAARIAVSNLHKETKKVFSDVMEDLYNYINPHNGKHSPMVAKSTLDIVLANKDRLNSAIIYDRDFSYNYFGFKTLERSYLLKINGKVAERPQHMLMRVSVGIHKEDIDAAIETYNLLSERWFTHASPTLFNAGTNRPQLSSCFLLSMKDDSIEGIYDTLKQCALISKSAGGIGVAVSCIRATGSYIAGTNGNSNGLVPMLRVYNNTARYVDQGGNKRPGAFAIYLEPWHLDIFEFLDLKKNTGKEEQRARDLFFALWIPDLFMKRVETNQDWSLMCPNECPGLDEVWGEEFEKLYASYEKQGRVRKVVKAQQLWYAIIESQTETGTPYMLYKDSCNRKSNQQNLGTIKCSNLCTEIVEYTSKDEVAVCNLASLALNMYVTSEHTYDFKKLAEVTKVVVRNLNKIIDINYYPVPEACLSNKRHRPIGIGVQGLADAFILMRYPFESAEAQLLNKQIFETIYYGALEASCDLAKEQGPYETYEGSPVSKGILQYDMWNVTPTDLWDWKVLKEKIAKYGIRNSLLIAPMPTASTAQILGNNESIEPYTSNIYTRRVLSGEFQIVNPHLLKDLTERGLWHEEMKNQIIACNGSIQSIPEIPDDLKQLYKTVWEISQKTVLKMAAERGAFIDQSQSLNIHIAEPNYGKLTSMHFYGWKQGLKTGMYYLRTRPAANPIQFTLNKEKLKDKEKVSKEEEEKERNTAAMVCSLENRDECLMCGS

[2] = test system: CCRF-CEM; test: Cytotoxicity, inhibition of cell proliferation to 50% of untreated controls; format: cell-based, human; details: read-out: Cytotoxicity as IC50, CCRF-CEM
Source text: (§1) In contrast to the previously reported 2'-substituted 9-β-D-arabinofuranosyl-2-haloadenines, the 2'-fluoro compounds were quite cytotoxic to three human cell lines, H.Ep.-2, CCRF-CEM, and K562, and the murine lukemia line, L1210.
(§2) Obviously, to be useful as anticancer agents, the nucleosides of the present invention must show the ability to kill cells in vitro. […] One cell line (L1210) is a murine lukemia, whereas the other three are human neoplasms. […] Many people today emphasize the importance of toxicity to human cell lines.

[3] = test system: H.Ep.-2; test: as above; format: cell-based, human
Source text: as §1, §2

[4] = test system: L1210; test: as above; format: cell-based; details: Mus musculus; L1210 murine leukemia line; read-out: Cytotoxicity as IC50, L1210
Source text: as §1, §2

[5] = target: E. coli purine nucleoside phosphorylase (Escherichia coli, UniProt P0ABP8); test: Phosphorolysis of nucleosides by purine nucleoside phosphorylase; format: biochemical; details: 0.5 mM nucleoside, 50 mM pH 8.0 phosphate buffer, HPLC, incubation 30-240 min, read-out: % Cleavage
E. coli purine nucleoside phosphorylase, sequence (P0ABP8 2-239): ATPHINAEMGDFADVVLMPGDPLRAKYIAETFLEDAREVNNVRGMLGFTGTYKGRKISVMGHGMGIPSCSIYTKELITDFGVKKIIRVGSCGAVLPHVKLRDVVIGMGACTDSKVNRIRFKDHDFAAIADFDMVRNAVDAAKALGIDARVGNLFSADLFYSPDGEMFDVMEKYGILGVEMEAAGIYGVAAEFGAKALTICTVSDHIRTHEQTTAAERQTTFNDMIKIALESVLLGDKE
Source text: Subsequently, the phosphorolysis of these compounds were compared by E. coli purine nucleoside phosphorylase. The […] and 2'-deoxyribonucleosides are rapidly cleaved by this enzyme, whereas the […] nucleosides substituted at 2' by Cl, N3, or NH2 are almost completely resistant. The 2'-fluoro compounds are less resistant to cleavage, being cleaved at roughly one-third the rate of the […] and 2'-deoxynucleosides. This reduction in cleavage rate may be acceptable for pharmaceutical purposes as phosphorylation in mammalian cells is quite rapid.
More specifically, an enzyme reaction mixture consisting of 0.5 mM nucleoside substrate, 50 mM pH 8.0 phosphate buffer and purine nucleoside phosphorylase in a final volume of 1.0 mL was allowed to incubate for 30, 60, 120, 180 and 240 minutes, and the amounts of nucleoside and substrate remaining were determined by HPLC.

[6] = test system: K562; test: Cytotoxicity, inhibition of cell proliferation to 50% of untreated controls; format: cell-based, human
Source text: as §1, §2

[7] = test system: P388 leukemia; test: In vivo activity vs ip P388 leukemia, ip administration; parameters: species or system CD2F1 mice
Source text: This, coupled with the lower toxicity of the cleavage product, 2-chloroadenine, relative to 2-fluoroadenine, make this compound a preferred compound of the present invention. The following Table III provides a summary of the in vivo activity of the 9-(2-fluoro-2-deoxy-β-D-arabinofuranosyl)-2-haloadenines vs P388 leukemia cell line in which CD2F1 mice were implanted ip with 10^6 P388 leukemia cells on day 0 in accordance with the protocol of Waud et al [Cancer Res. 50:3232 (1990)].
In the above table, the optimal dose refers to mg/kg/dose (≤LD50); ILS refers to the increase in life span; and the log change refers to the change in viable tumor cell population at the end of therapy compared to that at the start of therapy, based on the median day of death among the animals that died. The data in this table is presented in accordance with the National Cancer Institute activity criteria for drug testing in which an ILS of 20-74% is considered moderate activity, and an ILS of 75% or more is considered good activity.

[8] = test system: P388 leukemia; test: Antitumor activity against ip P388 leukemia, oral administration; format: in vivo, mice; details: oral 67 mg/kg/dose
Protocol: In a similar test, compound 3d was administered orally and evaluated for antitumor activity against ip P388 leukemia cells. As the data in Table III indicates, the optimal regimen for the compound, administered ip, is in divided doses five on days 1, 5, and 9, a similar schedule was selected for the oral administration of this compound. In this set of experiments, an oral dosage of 67 mg/kg/dose, given q 6 h×4 on days 1, 5, and 9, effected a reduction in tumor burden of 1.7 log10 units, a figure which is approximately 2.5 log10 units less that that obtained in studies using ip drug administration.

[9] = test system: K562 cells; details: cited from earlier work
[10] = relative to 9-β-D-arabinofuranosyl-2-fluoroadenine; cited from earlier work
[11] = HEp-2, H.Ep.-2 human cell line, read-out: Cytotoxicity as IC50, H.Ep.-2
[12] = K562 human cell line, read-out: Cytotoxicity as IC50, K562
[13] = 30 mg/kg/dose ip, q 3 h × 8 (Days 1, 5, 9)
[14] = 50 mg/kg/dose ip, q 3 h × 8 (Days 1, 5, 9)
[15] = 20 mg/kg/dose ip, q 3 h × 8 (Days 1, 5, 9)
[16] = 25 mg/kg/dose ip, q 3 h × 8 (Days 1, 5, 9)

Nc1nc(Cl)nc2c1ncn2[C@@H]1O[C@H](COP(=O)(O)OP(=O)(O)OP(=O)(O)O)[C@@H](O)[C@@H]1F [2-chloro-9-(2-deoxy-2-fluoro-β-D-arabinofuranosyl)adenine 5'triphosphate]
inhibition of ribonucleotide reductase (in words) [1]: the same as that seen with 2-chloro-2'-deoxyadenosine 5'-triphosphate

Nc1nc(F)nc2c1ncn2[C@@H]1O[C@H](COP(=O)(O)OP(=O)(O)OP(=O)(O)O)[C@@H](O)[C@@H]1O [9-β-D-arabinofuranosyl-2-fluoroadenine 5'triphosphate]
inhibition of ribonucleotide reductase (in words) [1]: much less potent inhibitor | concentration inhibiting ribonucleotide reductase relative to 2-chloro-9-(2-deoxy-2-fluoro-β-D-arabinofuranosyl)adenine 5' triphosphate ([1]; ratio of concentrations required): 10 fold

Nc1nc(Br)nc2c1ncn2[C@H]1C[C@H](O)[C@@H](CO)O1 [Y = Br, X = H]
pIC50 ([2]; CCRF-CEM human cell line): 7.70 | pIC50 [3, 11]: 7.70 | pIC50 [4]: 6.05

Nc1nc(Br)nc2c1ncn2[C@@H]1O[C@H](CO)[C@@H](O)[C@@H]1O [Y = Br, X = OH]
pIC50 [3, 11]: 5.40 | pIC50 [4]: 5.52

Nc1nc(Cl)nc2c1ncn2[C@H]1C[C@H](O)[C@@H](CO)O1 [Y = Cl, X = H, 2-chloro-2'-deoxyadenosine]
pIC50 ([2]; CCRF-CEM human cell line): 8.52 | pIC50 [3, 11]: 7.52 | pIC50 [4]: 7.15 | metabolised at 500 µM [5]: > 99%

Nc1nc(Cl)nc2c1ncn2[C@@H]1O[C@H](CO)[C@@H](O)[C@@H]1O [Y = Cl, X = OH]
pIC50 ([2]; CCRF-CEM human cell line): 5.00 | pIC50 [3, 11]: 5.52 | pIC50 [4]: > 5.52

Nc1nc(F)nc2c1ncn2[C@H]1C[C@H](O)[C@@H](CO)O1 [Y = F, X = H, 2-fluoro-2'-deoxyadenosine]
pIC50 ([2]; CCRF-CEM human cell line): 6.70 | pIC50 [3, 11]: 6.70 | pIC50 [4]: 6.05 | metabolised at 500 µM [5]: > 99%

Nc1nc(F)nc2c1ncn2[C@@H]1O[C@H](CO)[C@@H](O)[C@@H]1O [Y = F, X = OH, 2-fluoro-9-β-D-arabinofuranosyladenine, reference compound]
pIC50 ([2]; Homo sapiens, CCRF-CEM): 6.40 | pIC50 ([3]; Homo sapiens, HEp-2, read-out: Cytotoxicity as IC50, H.Ep.-2): 5.05 | pIC50 ([6]; Homo sapiens, K562, read-out: Cytotoxicity as IC50, K562): 6.82 | metabolised at 500 µM [5]: 99%

Nc1nc(Br)nc2c1ncn2[C@@H]1O[C@H](CO)[C@@H](O)[C@@H]1F [compound 3b, 2-Bromo-9-(2-deoxy-2-fluoro-β-D-arabinofuranosyl)-9H-purin-6-amine]
pIC50 ([2]; CCRF-CEM human cell line): 7.70 | pIC50 [3, 11]: 6.66 | pIC50 [6, 12]: 7.30 | pIC50 [4]: 6.59 | metabolised at 500 µM [5]: 45% | Log10 change in viable tumor cell population [7, 13]: -1.0 | Median % ILS (dying mice only) [7, 13]: +100% | Tumor-free Survivors [7, 13]: 0/6 | Log10 change in viable tumor cell population [7, 14]: +1.6 | Median % ILS (dying mice only) [7, 14]: +41% | Tumor-free Survivors [7, 14]: 0/6 | Log10 change in viable tumor cell population ([7]; 200 mg/kg/dose ip, qd 1-5): +0.1 | Median % ILS (dying mice only) ([7]; 200 mg/kg/dose ip, qd 1-5): +33% | Tumor-free Survivors ([7]; 200 mg/kg/dose ip, qd 1-5): 0/6

Nc1nc(Cl)nc2c1ncn2[C@@H]1O[C@H](CO)[C@@H](O)[C@@H]1F [compound 3d, 2-Chloro-9-(2-deoxy-2-fluoro-B-D-arabinofuranosyl)-2,0 9H-purin-6-amine]
pIC50 ([2]; CCRF-CEM human cell line): 7.30 | pIC50 [3, 11]: 7.92 | pIC50 [6, 12]: 8.52 | pIC50 [4]: 6.64 | metabolised at 500 µM [5]: 39% | Log10 change in viable tumor cell population [7, 15]: -6.6 | Median % ILS (dying mice only) [7, 15]: +220% | Tumor-free Survivors [7, 15]: 1/6 | Log10 change in viable tumor cell population [7, 16]: -2.8 | Median % ILS (dying mice only) [7, 16]: +118% | Tumor-free Survivors [7, 16]: 0/5 | Log10 change in viable tumor cell population ([7]; 100 mg/kg/dose ip, qd 1-5): -0.3 | Median % ILS (dying mice only) ([7]; 100 mg/kg/dose ip, qd 1-5): +38% | Tumor-free Survivors ([7]; 100 mg/kg/dose ip, qd 1-5): 0/5 | Log10 change in viable tumor cell population ([7]; 200 mg/kg/dose ip, qd 1-5): -1.6 | Median % ILS (dying mice only) ([7]; 200 mg/kg/dose ip, qd 1-5): +59% | Tumor-free Survivors ([7]; 200 mg/kg/dose ip, qd 1-5): 0/3 | reduction in tumor burden ([8]; q 6 h×4 on days 1, 5, and 9): 1.7 log10 units | reduction in tumor burden, shortfall versus ip drug administration ([8]; q 6 h×4 on days 1, 5, and 9, compared with ip): approximately 2.5 log10 units | inhibition of DNA synthesis [9]: inhibits DNA synthesis | solubility (in words) [10]: greater solubility

Nc1nc(F)nc2c1ncn2[C@@H]1O[C@H](CO)[C@@H](O)[C@@H]1F [compound 3g, 2-Fluoro-9-(2-deoxy-2-fluoro-β-D-arabinofuranosyl)-9H-purin-6-amine]
pIC50 ([2]; CCRF-CEM human cell line): 6.85 | pIC50 [3, 11]: 6.47 | pIC50 [6, 12]: 6.52 | pIC50 [4]: 6.42 | metabolised at 500 µM [5]: 10% | Log10 change in viable tumor cell population [7, 16]: -0.1 | Median % ILS (dying mice only) [7, 16]: +81% | Tumor-free Survivors [7, 16]: 0/6 | Log10 change in viable tumor cell population ([7]; 100 mg/kg/dose ip, qd 1-5): -1.8 | Median % ILS (dying mice only) ([7]; 100 mg/kg/dose ip, qd 1-5): +63% | Tumor-free Survivors ([7]; 100 mg/kg/dose ip, qd 1-5): 0/3

— US5661136A, “2-halo-2'-fluoro ARA adenosines as antinoplastic agents” (priority 1994, dated 1997)
